Measured values as given in PMC11606603, “The membrane domains of mammalian adenylyl cyclases are lipid receptors” (eLife, 2024).
Several values for one entry are separate records, joined by “and”; a condition that tells them apart may be missing. Equal values may be shown once. Entries after “also recorded” stand apart in the source; their conditions may differ.

How the values were obtained:
Assay type in all cases: biochemical
mAC8 = molecular target: T1, mAC8 (Homo sapiens, UniProt P40145); assay: AC assay, Gsα-stimulated mAC8 in membranes from transfected HEK293 cells; details: for mAC8 activity [%] (100% = 300nM Gsα stimulation): 20µM fatty acid concentration
T1 construct: Human mAC genes were from GenScript and fitted with a C-terminal FLAG-tag; FLAG (C); made in house; host or cells: HEK293, permanently transfected; membrane preparation
Outline: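 cAMP detected with a Cisbio kit, calibrated by a cAMP standard curve each run. Reaction: 1 mM ATP, 2 mM MgCl2, 3 mM creatine phosphate, 60 μg/ml creatine kinase, 50 mM MOPS pH 7.5. Enzyme source: membranes of stably transfected HEK293 (G418-selected) carrying FLAG-tagged human AC.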

mAC1 = molecular target: T2, mAC1 (Homo sapiens, UniProt Q08828); assay: AC assay, Gsα-stimulated mAC1 in membranes from transfected HEK293 cells
T2 construct: Human mAC genes were from GenScript and fitted with a C-terminal FLAG-tag; FLAG (C); made in house; host or cells: HEK293, permanently transfected; membrane preparation
Outline: (§1)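 Adenylyl cyclase activity was measured in 100,000 × g membrane fractions prepared from HEK293 cells permanently transfected with C-terminally FLAG-tagged human AC isoforms. Assays contained 1 mM ATP and 2 mM MgCl2 with an ATP-regenerating system at pH 7.5.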

mAC4 = molecular target: T3, mAC4 (Homo sapiens, UniProt Q8NFM4); assay: AC assay, Gsα-stimulated mAC4 in membranes from transfected HEK293 cells; details: for mAC4 activity [%] (100% = 300nM Gsα stimulation); 20µM fatty acid concentration: single experiments
T3 construct: Human mAC genes were from GenScript and fitted with a C-terminal FLAG-tag; FLAG (C); made in house; host or cells: HEK293, permanently transfected; membrane preparation
T3 sequence (Q8NFM4 1-1077): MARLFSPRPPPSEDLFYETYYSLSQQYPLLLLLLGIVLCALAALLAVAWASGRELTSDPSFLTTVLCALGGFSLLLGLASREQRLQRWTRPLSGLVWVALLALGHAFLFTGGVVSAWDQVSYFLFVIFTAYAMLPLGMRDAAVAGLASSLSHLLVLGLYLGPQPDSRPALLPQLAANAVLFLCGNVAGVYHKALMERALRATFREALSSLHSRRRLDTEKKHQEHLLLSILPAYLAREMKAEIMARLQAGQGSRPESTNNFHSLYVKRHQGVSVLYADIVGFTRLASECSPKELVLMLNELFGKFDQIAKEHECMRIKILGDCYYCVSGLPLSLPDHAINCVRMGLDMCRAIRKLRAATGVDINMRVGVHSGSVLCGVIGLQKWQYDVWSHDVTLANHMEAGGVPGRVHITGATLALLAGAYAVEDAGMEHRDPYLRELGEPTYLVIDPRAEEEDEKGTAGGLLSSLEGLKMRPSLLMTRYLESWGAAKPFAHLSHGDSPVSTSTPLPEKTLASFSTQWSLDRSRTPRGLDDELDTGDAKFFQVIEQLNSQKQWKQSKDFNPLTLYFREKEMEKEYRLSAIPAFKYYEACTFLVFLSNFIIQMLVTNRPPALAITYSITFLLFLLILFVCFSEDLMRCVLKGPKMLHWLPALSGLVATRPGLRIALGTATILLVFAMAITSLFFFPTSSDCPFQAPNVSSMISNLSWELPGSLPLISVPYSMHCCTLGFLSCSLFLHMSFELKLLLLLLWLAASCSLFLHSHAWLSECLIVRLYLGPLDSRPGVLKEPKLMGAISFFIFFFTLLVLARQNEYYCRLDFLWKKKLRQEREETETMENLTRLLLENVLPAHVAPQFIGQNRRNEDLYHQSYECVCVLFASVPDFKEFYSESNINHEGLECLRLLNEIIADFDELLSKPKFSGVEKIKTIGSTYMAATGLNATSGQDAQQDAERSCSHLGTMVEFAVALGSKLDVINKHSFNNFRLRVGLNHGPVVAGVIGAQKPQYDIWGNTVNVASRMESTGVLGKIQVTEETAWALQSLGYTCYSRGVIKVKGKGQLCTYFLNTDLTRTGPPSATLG
Outline: as §1

mAC6 = molecular target: T4, mAC6 (Homo sapiens, UniProt O43306); assay: AC assay, Gsα-stimulated mAC6 in membranes from transfected HEK293 cells; details: for mAC6 activity [%] (100% = 300nM Gsα stimulation): 20µM fatty acid concentration
T4 construct: Human mAC genes were from GenScript and fitted with a C-terminal FLAG-tag; FLAG (C); made in house; host or cells: HEK293, permanently transfected; membrane preparation
Outline: as §1

mAC5 = molecular target: T5, mAC5 (Homo sapiens, UniProt O95622); assay: AC assay, Gsα-stimulated mAC5 in membranes from transfected HEK293 cells
T5 construct: Human mAC genes were from GenScript and fitted with a C-terminal FLAG-tag; FLAG (C); made in house; host or cells: HEK293, permanently transfected; membrane preparation
Outline: as §1

[1] = Figure 5 A, 20 µM oleic acid, 300 nM Gsα
[2] = fatty acid 1 µM, individual experiments
[3] = fatty acid 3 µM, individual experiments
[4] = fatty acid 6 µM, individual experiments
[5] = fatty acid 10 µM, individual experiments
[6] = fatty acid 20 µM, individual experiments

T5 sequence (O95622 whole entry): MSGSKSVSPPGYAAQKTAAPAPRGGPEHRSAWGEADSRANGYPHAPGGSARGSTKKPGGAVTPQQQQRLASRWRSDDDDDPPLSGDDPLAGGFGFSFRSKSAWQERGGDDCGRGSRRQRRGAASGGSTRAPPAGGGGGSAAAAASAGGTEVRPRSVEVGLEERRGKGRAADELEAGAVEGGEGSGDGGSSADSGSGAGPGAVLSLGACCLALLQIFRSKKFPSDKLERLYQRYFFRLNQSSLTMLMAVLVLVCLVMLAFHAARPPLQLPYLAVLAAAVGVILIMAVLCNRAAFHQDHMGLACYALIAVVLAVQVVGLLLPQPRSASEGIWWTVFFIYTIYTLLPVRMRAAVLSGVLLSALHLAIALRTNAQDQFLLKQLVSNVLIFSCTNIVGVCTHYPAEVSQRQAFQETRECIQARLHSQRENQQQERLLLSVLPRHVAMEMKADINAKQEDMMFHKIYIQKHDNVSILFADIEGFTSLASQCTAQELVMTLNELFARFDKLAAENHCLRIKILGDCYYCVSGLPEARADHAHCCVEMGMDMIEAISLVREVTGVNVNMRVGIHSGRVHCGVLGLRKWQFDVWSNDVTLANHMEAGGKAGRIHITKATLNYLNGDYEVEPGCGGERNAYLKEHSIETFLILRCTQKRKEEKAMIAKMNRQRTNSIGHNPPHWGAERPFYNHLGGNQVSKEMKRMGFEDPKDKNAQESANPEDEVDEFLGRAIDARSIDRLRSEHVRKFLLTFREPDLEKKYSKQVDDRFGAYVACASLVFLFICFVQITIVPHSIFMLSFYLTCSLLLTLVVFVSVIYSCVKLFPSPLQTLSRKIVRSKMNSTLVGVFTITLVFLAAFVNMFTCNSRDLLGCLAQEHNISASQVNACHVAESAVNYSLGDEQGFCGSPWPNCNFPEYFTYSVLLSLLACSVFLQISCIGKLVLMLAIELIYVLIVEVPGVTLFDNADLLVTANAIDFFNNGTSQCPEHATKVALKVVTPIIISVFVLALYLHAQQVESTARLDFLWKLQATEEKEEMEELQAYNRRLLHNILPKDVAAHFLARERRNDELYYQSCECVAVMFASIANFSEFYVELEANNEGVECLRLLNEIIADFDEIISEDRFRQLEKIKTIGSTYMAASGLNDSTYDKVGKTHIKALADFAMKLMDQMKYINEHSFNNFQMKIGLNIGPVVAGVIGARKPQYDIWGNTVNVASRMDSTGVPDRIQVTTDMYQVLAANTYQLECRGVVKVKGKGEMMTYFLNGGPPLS
T4 sequence (O43306 whole entry): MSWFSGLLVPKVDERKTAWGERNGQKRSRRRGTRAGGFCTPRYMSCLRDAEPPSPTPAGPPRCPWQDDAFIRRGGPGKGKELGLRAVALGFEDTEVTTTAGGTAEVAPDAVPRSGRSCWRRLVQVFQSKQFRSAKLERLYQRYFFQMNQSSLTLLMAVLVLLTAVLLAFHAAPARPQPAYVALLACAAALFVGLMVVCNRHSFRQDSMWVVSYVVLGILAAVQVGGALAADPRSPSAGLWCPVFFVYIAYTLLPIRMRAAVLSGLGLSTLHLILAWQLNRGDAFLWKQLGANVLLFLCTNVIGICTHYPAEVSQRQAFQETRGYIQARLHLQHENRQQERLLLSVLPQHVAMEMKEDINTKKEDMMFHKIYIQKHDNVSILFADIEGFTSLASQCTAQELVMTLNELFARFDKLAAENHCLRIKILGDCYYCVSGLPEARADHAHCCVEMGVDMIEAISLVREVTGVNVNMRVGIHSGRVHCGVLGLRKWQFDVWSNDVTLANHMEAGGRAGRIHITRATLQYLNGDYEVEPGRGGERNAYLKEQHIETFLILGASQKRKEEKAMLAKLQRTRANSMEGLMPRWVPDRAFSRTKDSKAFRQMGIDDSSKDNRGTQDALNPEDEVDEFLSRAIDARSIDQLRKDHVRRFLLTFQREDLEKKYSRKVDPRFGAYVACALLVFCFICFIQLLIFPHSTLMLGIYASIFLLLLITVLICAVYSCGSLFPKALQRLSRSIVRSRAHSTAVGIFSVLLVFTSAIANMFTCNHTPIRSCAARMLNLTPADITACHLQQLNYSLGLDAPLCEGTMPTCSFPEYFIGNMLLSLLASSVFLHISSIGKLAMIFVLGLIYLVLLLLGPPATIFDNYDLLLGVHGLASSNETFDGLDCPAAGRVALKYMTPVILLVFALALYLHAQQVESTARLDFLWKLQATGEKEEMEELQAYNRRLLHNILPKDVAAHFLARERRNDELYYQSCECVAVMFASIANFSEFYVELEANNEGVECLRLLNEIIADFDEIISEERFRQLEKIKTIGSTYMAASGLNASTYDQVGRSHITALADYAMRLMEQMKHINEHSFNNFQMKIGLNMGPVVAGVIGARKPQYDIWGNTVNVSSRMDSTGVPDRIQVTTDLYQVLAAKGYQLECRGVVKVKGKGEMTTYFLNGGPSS
T1 sequence (P40145 whole entry): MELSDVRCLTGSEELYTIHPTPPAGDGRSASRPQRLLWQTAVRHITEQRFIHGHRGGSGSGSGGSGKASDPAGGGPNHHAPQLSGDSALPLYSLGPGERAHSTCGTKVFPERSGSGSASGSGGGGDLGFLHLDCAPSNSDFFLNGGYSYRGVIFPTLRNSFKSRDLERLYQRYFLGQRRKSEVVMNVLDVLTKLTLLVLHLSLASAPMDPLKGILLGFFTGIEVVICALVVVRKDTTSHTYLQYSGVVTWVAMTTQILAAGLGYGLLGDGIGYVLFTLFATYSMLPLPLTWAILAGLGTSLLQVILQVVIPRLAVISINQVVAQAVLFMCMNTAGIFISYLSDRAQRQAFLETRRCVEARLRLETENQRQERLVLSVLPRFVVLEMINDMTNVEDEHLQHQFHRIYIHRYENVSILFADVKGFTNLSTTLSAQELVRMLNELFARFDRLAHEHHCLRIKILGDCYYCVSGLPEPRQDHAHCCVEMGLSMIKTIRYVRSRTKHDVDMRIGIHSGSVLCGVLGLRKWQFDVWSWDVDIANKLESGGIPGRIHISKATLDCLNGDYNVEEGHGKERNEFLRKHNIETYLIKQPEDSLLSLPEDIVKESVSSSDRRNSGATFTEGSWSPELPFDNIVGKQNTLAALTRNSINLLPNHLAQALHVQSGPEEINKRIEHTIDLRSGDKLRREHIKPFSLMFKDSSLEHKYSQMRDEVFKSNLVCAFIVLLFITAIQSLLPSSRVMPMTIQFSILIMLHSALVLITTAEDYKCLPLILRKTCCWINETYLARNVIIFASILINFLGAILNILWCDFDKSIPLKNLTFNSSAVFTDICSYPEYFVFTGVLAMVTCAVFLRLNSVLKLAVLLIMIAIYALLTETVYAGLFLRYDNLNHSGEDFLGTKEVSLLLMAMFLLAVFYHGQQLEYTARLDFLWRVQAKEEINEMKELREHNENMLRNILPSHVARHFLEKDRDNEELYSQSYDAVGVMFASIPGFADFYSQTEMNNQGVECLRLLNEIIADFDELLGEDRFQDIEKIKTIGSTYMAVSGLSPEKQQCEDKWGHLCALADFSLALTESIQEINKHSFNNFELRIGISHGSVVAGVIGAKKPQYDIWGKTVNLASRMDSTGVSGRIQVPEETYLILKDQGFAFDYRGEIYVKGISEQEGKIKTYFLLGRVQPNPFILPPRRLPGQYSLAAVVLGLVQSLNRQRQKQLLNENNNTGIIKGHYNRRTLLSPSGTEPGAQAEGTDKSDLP
T2 sequence (Q08828 whole entry): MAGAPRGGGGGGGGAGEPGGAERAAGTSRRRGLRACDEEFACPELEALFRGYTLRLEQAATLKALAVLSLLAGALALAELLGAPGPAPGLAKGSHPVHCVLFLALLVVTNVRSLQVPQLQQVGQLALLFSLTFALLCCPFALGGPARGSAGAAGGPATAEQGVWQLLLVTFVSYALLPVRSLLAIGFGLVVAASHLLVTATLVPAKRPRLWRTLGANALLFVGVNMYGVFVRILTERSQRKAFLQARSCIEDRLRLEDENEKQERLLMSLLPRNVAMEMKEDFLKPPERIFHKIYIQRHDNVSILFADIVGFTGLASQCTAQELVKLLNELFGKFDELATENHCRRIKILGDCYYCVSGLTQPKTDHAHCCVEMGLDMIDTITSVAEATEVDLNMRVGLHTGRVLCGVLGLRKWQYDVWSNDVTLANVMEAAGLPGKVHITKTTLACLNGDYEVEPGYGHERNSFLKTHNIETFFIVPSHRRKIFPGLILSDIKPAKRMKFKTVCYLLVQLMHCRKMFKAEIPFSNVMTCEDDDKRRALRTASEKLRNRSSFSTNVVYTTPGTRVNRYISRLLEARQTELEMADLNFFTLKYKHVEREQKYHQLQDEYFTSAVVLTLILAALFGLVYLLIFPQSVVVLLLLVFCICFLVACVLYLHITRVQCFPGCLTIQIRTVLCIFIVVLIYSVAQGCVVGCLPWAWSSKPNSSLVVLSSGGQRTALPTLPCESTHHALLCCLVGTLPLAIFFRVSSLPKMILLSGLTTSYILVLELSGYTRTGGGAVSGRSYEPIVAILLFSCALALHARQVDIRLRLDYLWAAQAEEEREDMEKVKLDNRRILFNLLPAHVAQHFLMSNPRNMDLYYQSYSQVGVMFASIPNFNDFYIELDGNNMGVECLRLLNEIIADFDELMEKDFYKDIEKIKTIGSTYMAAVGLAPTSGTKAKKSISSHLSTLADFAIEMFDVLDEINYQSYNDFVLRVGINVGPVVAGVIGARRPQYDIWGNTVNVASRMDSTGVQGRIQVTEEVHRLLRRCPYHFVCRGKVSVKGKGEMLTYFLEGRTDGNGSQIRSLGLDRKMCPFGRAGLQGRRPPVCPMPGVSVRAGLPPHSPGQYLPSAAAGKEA

CCCCCCCC/C=C\CCCCCCCC(=O)O [Oleic acid, Oleic ((9Z)-octadecenoic) acid]
mAC8 activity [%] (100% = 300nM Gsα stimulation) (mAC8): 134% and 139%
Effect of lipid on 300 nM Gsα-stimulated mAC8 (mAC8; 20 µM, in words): unaffected
mAC activity [%] (100% = 300nM Gsα stimulation); 20µM Oleic acid concentration, mAC8 (mAC8; [1]): 134% and 139%
Effect of lipid on 300 nM Gsα-stimulated mAC1 (mAC1; 20 µM, in words): slightly attenuated
mAC4 activity [%] (100% = 300nM Gsα stimulation); 20µM fatty acid concentration (mAC4; 300 nM Gsα): 100% and 72% and 120% and 92%
Effect of lipid on 300 nM Gsα-stimulated mAC4 (mAC4; 20 µM, in words): unaffected
mAC activity [%] (100% = 300nM Gsα stimulation); 20µM Oleic acid concentration, mAC4 (mAC4; [1]): 72% and 92% and 64% and 100%
mAC6 activity [%] (100% = 300nM Gsα stimulation) (mAC6): 92% and 80% and 133%
Effect of lipid on 300 nM Gsα-stimulated mAC6 (mAC6; 20 µM, in words): unaffected
mAC activity [%] (100% = 300nM Gsα stimulation); 20µM Oleic acid concentration, mAC6 (mAC6; [1]): 92% and 80% and 133%
mAC5 activity [%] (100% = 300nM Gsα stimulation) (mAC5; 20µM fatty acid concentration): 93% and 117% and 135% and 138%
Effect of lipid on Gsα-stimulated mAC5 (mAC5; 20 µM, in words): not enhanced; also recorded: unaffected
mAC activity [%] (100% = 300nM Gsα stimulation); 20µM Oleic acid concentration, mAC5 (mAC5; [1]): 135% and 138% and 161% and 84% and 105% and 93% and 117%
activity, mAC5 + 20µM Oleic acid (mAC5; Gsα 30 nM): 0.080 cAMP nmol/mg/min
activity, mAC5 + 20µM Oleic acid (mAC5; Gsα 60 nM): 0.233 cAMP nmol/mg/min and 0.334 cAMP nmol/mg/min
activity, mAC5 + 20µM Oleic acid (mAC5; Gsα 100 nM): 0.353 cAMP nmol/mg/min and 0.362 cAMP nmol/mg/min
activity, mAC5 + 20µM Oleic acid (mAC5; Gsα 300 nM): 0.752 cAMP nmol/mg/min and 1.165 cAMP nmol/mg/min
activity, mAC5 + 20µM Oleic acid (mAC5; Gsα 450 nM): 1.160 cAMP nmol/mg/min and 1.405 cAMP nmol/mg/min
activity, mAC5 + 20µM Oleic acid (mAC5; Gsα 600 nM): 1.213 cAMP nmol/mg/min and 1.684 cAMP nmol/mg/min
activity, mAC5 + 20µM Oleic acid (mAC5; Gsα 800 nM): 1.245 cAMP nmol/mg/min and 1.702 cAMP nmol/mg/min
activity, mAC5 + 20µM Oleic acid (mAC5; Gsα 1000 nM): 1.415 cAMP nmol/mg/min and 1.818 cAMP nmol/mg/min
mAC5 activity [%] (100% = 300nM Gsα stimulation) (mAC5; [2]): 126% and 196% and 115% and 78% and 64%
mAC5 activity [%] (100% = 300nM Gsα stimulation) (mAC5; [3]): 142% and 91% and 87%
mAC5 activity [%] (100% = 300nM Gsα stimulation) (mAC5; [4]): 146% and 127% and 77% and 90%
mAC5 activity [%] (100% = 300nM Gsα stimulation) (mAC5; [5]): 126% and 140% and 134% and 93%
mAC5 activity [%] (100% = 300nM Gsα stimulation) (mAC5; [6]): 93% and 117% and 135% and 138%
activity [%] (100% = 300nM Gsα stimulation) (mAC5; mAC5, 20µM Oleic acid concentration, Figure 9 C): 161% and 84% and 93% and 117% and 135% and 138%

CCCCCCCCCCCCCCCCCC(=O)O [Stearic acid, Stearic (octadecanoic) acid]
mAC8 activity [%] (100% = 300nM Gsα stimulation) (mAC8): 107% and 102%
mAC1 activity [%] (100% = 300nM Gsα stimulation); 20µM fatty acid concentration (mAC1; 20 µM fatty acid, 300 nM Gsα, single experiments): 126% and 77% and 95%
mAC4 activity [%] (100% = 300nM Gsα stimulation); 20µM fatty acid concentration (mAC4; 300 nM Gsα): 79% and 60% and 83%
mAC6 activity [%] (100% = 300nM Gsα stimulation) (mAC6): 88% and 61% and 94% and 93%
mAC5 activity [%] (100% = 300nM Gsα stimulation) (mAC5; 20µM fatty acid concentration): 73% and 93% and 77%
mAC5 activity [%] (100% = 300nM Gsα stimulation) (mAC5; fatty acid 0.5 µM, individual experiments): 100%
mAC5 activity [%] (100% = 300nM Gsα stimulation) (mAC5; [2]): 134% and 72%
mAC5 activity [%] (100% = 300nM Gsα stimulation) (mAC5; [3]): 73% and 80% and 162%
mAC5 activity [%] (100% = 300nM Gsα stimulation) (mAC5; [4]): 124% and 75% and 108% and 125%
mAC5 activity [%] (100% = 300nM Gsα stimulation) (mAC5; [5]): 73% and 93% and 77%
mAC5 activity [%] (100% = 300nM Gsα stimulation) (mAC5; [6]): 80% and 91% and 83%
